Data as given in patent publication US20260166159A1, “KRAS G12D DEGRADATION AGENT, AND PREPARATION METHOD AND USE THEREFOR” (LEADINGTAC PHARMACEUTICAL (SHAOXING) CO., LTD., priority 2022, published 2026).

Experiments:
Type in all cases: cell-based
[1] = tested on: KRAS G12D mutant human metastatic pancreatic cancer cell AsPc-1; test: 3D cell proliferation inhibition assay, AsPc-1; details: ASPC1, 168 h, AsPc-1, 7 days, CTG, numeric values
Method in brief: (§1)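 CellTiter-Glo luminescence, read after 60 min at room temperature, measured growth of 3D cultures (5×10^2 cells/well) exposed for 7 days to compounds at final concentrations of 10000–0.026 nM in 0.2% DMSO. Percent inhibition, scaled between DMSO-treated cells and medium alone, was fitted against log concentration for IC50.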

KRAS-G12D = target: T1, KRAS-G12D (Homo sapiens, UniProt P01116, G12D); test: KRAS-G12D degradation assay (Western Blot), AsPc-1 cells; details: for DC50: 24 h; for Dmax: ASPC1, 24 h
T1 construct: endogenous in cells; host or cells: A-427 (ATCC), AGS, AsPc-1, Panc 04.03
Description: The degradation effects of the compounds on KRAS-G12D were investigated on KRAS G12D mutant human lung cancer cell A-427 (ATCC), KRAS G12D mutant human gastric cancer cell AGS, KRAS G12D mutant human metastatic pancreatic cancer cell AsPc-1, and KRAS G12D mutant human pancreatic adenocarcinoma cell Panc 04.03. The specific procedures were as follows: 0.95 mL of cells were seeded into each well of a 24-well cell culture plate to achieve a cell density of 5×10^5 cells/well; and the cell plate was incubated in an incubator at 37° C. with 5% CO2 overnight. Then 50 μL of the compound solution after dilution was added to each of the wells with the corresponding cells, so that the final concentration of the compound was in a range of 0.03-3000 nM. The final concentration of DMSO was 0.25%. After the compounds were added, the cell plate was incubated in the incubator at 37° C. with 5% CO2 for 24 h. The culture medium in the 24-well cell culture plate was removed, and the plate was washed twice with 1×PBS (KeyGEN). 120 μL of RIPA (strong) lysis buffer (Beyotime) supplemented with 1 mM phenylmethylsulfonyl fluoride, a protease inhibitor mixture (Beyotime), and a protease phosphatase inhibitor mixture (Beyotime) was added to lyse adherent A-427 cells at the bottom of the cell culture plate. After the plate was left to stand on ice for 30 min, the protein lysate in each well was transferred to a 1.5 mL centrifuge tube and centrifuged at 15000 g for 20 min at 4° C. The cell lysate supernatants after centrifugation were cryopreserved in a refrigerator at −80° C. for later use.
After the samples of the cell lysate supernatants that had been prepared were thawed from the refrigerator at −80° C., the total protein concentrations of the cell lysates were determined using a BCA protein quantification kit (Tiangen). The total protein concentrations of the samples were then adjusted to 0.5 μg/μL with PBS and 5×SDS-PAGE protein loading buffer (Beyotime), and the samples were incubated in a water bath at 100° C. for 15 min. The samples were then incubated in an ice bath for 5 min and centrifuged at 14000 g for 1 min at 4° C., and the supernatants were mixed well as loading samples for the Western Blot assay. The samples were loaded into wells of a 10% precast gel (KeyGEN) with a loading volume of 10 μL (total protein: 5 μg), a sufficient Tris-MOPS-SDS running buffer (Adamas) was added, and then electrophoresis was performed at a constant voltage of 120 V for 55 min. After the electrophoresis, the proteins on the gel were transferred to PVDF membranes at a constant current of 250 mA for 55 min. After the membrane transfer, the PVDF membranes were incubated in 1× Quick Block blocking buffer (Beyotime) at room temperature for 30 min. After the blocking, the PVDF membranes were separately incubated at 4° C. overnight with the KRAS antibody (Abcam) diluted in a ratio of 1:1000 and the […] antibody (Abcam) diluted in a ratio of 1:2000 in 5% BSA as the diluent, and then washed with 1×TBST buffer (2.4 g of Tris, 8.8 g of NaCl, 1.5 mL of Tween 20, with pH adjusted to 7.4, with the volume brought to 1 L) 3 times for 10 min/time. The membranes were incubated with a secondary antibody (Abcam) diluted in 5% BSA at room temperature for 2 h, and then washed with 1×TBST buffer 3 times for 10 min/time. Finally, the membranes were incubated with Clarity Western ECL Substrate (BIO-RAD) for 5 min for luminescence and color development, and a ChemiScope 6200 Touch chemiluminescence imaging system (Clinx) was used for color development and protein mapping. Gray value analysis of the protein maps was performed using the chemiluminescence analysis software (Clinx). The gray correction value for each sample was calculated using the formula: gray correction value=(gray value of target protein/gray value of corresponding internal reference)×10^3. Then degradation rates were calculated by comparison with the gray correction value of the control group. […]

[2] = tested on: KRAS G12D mutant human pancreatic cancer cell Panc 04.03; test: 3D cell proliferation inhibition assay, Panc 04.03; details: 168 h, Panc 04.03, 7 days, CTG, numeric values
Source text: The inhibitory effects of the compounds on 3D cell proliferation were investigated on KRAS G12D mutant human lung cancer cell A427, KRAS G12D mutant human gastric cancer cell AGS, KRAS G12D mutant human metastatic pancreatic cancer cell AsPc-1, KRAS G12D mutant human pancreatic cancer cell Panc 04.03, KRAS G12D mutant human pancreatic cancer cell HPAC, KRAS G12V mutant human lung squamous cell carcinoma cell SW900, and KRAS WT human gastric cancer cell MKN1. The specific procedures were as follows:
10 μL of each compound solution diluted in a gradient was added to corresponding wells of a 96-well low-adsorption microplate (PerkinElmer), so that the final concentrations of the test compounds in the reaction system were in a range of 10000-0.026 nM. The final concentration of DMSO was 0.2%. Then 90 µL of cells were correspondingly seeded into each well to achieve a cell density of 5×10^2 cells/well (the cell density of SW900 was 5×10^1 cells/well, and the cell density of MKN1 was 1×10^3 cells/well). In addition to test wells for the test compounds, both a DMSO control well and a medium control well were set, with the DMSO control well containing DMSO and cells and the medium well containing only a medium. After the sample loading, the 96-well low-adsorption microplate was incubated in an incubator at 37° C. with 5% carbon dioxide for 7 days. After 7 days, the microplate was taken out, and 100 μL of CTG reagent (Promega) was added to each well. The plate was incubated at room temperature for 60 min and read on a microplate reader EnVision by the chemiluminescence program. The inhibition rates of the compounds at each concentration were calculated using the formula for the percentage inhibition of cell proliferation: inhibition rate %=(mean value of DMSO control group−single concentration reading value of compound)/(mean value of DMSO control group−mean value of medium control group)×100. Then non-linear curve fittings for logarithmic concentration-inhibition rate were performed by GraphPad Prism 8, and the IC50 values of the compounds were obtained (Table 5).

[3] = tested on: KRAS G12D mutant human pancreatic cancer cell HPAC; test: 3D cell proliferation inhibition assay, HPAC; details: 168 h, 7 days, CTG
Method in brief: as §1

[4] = tested on: KRAS G12D mutant human gastric cancer cell AGS; test: 3D cell proliferation inhibition assay, AGS; details: 168 h, 7 days, CTG, numeric values
Method in brief: as §1

T1 sequence (P01116 1-188 isoform P01116-2 G12D): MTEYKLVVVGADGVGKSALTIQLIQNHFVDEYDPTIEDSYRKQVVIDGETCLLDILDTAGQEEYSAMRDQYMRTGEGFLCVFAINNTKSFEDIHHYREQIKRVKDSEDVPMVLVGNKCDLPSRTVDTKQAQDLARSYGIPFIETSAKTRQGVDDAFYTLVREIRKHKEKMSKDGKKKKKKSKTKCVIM

Structure (SMILES) | IC50 [1] [nM] | DC50 (KRAS-G12D) [nM] | Dmax (KRAS-G12D) [%] | IC50 [2] [nM] | IC50 [3] [nM] | IC50 [4] [nM]
C#Cc1c(F)ccc2cc(O)cc(-c3ncc4c(N5CC6CCC(C5)N6)nc(OC[C@H](C)CN5CCN(CC6CCC7(CC6)CCN(C(=O)c6ccc(C)c(N8CCC(=O)NC8=O)c6)CC7)CC5)nc4c3F)c12 [Example 100, 1-(5-(9-((4-((R)-3-((4-(3,8-diazabicyclo[3.2.1]octan-3-yl)-7-(8-ethynyl-7-fluoro-3-hydroxynaphthalen-1-yl)-8-fluoropyrido[4,3-d]pyrimidin-2-yl)oxy)-2-methylpropyl)piperazin-1-yl)methyl)-3-azaspiro[5.5]undecane-3-carbonyl)-2-methylphenyl)dihydropyrimidine-2,4(1H,3H)-dione] | 2.02 | 2.54 | 100 | 23.8 | 2.43 | 3.63
C#Cc1c(F)ccc2cc(O)cc(-c3ncc4c(N5CC6CCC(C5)N6)nc(OC[C@H](C)CN5CCN(CC6CCC7(CC6)CCN(C(=O)c6ccc(Cl)c(N8CCC(=O)NC8=O)c6)CC7)CC5)nc4c3F)c12 [Example 102, 1-(5-(9-((4-((R)-3-((4-(3,8-diazabicyclo[3.2.1]octan-3-yl)-7-(8-ethynyl-7-fluoro-3-hydroxynaphthalen-1-yl)-8-fluoropyrido[4,3-d]pyrimidin-2-yl)oxy)-2-methylpropyl)piperazin-1-yl)methyl)-3-azaspiro[5.5]undecane-3-carbonyl)-2-chlorophenyl)dihydropyrimidine-2,4(1H,3H)-dione] | 3.69 | 8.93 | 100 | 15.2 | 13.5 | 6.56
C#Cc1c(F)ccc2cc(O)cc(-c3ncc4c(N5CC6CCC(C5)N6)nc(OCC5(CN6CCN(CC7CCC8(CCN(C(=O)c9ccc(C)c(N%10CCC(=O)NC%10=O)c9)CC8)CO7)CC6)CC5)nc4c3F)c12 (centres unmarked) [Example 106, 1-(5-(3-((4-((1-(((4-(3,8-diazabicyclo[3.2.1]octan-3-yl)-7-(8-ethynyl-7-fluoro-3-hydroxynaphthalen-1-yl)-8-fluoropyrido[4,3-d]pyrimidin-2-yl)oxy)methyl)cyclopropyl)methyl)piperazin-1-yl)methyl)-2-oxa-9-azaspiro[5.5]undecane-9-carbonyl)-2-methylphenyl)dihydropyrimidine-2,4(1H,3H)-dione] | 30.8 | 10.5 | 99.5 | 63.5 | 152 | 13.4
C#Cc1c(F)ccc2cc(O)cc(-c3ncc4c(N5CC6CCC(C5)N6)nc(OC[C@H](C)CN5CCN(CC6CCC7(CC6)CCN(C(=O)c6ccc(CC)c(N8CCC(=O)NC8=O)c6)CC7)CC5)nc4c3F)c12 [Example 110, 1-(5-(9-((4-((R)-3-((4-(3,8-diazabicyclo[3.2.1]octan-3-yl)-7-(8-ethynyl-7-fluoro-3-hydroxynaphthalen-1-yl)-8-fluoropyrido[4,3-d]pyrimidin-2-yl)oxy)-2-methylpropyl)piperazin-1-yl)methyl)-3-azaspiro[5.5]undecane-3-carbonyl)-2-ethylphenyl)dihydropyrimidine-2,4(1H,3H)-dione] | 4.47 | 2.56 | 99.2 | 12.5 | 18.6 | 5.69
C#Cc1c(F)ccc2cc(O)cc(-c3ncc4c(N5CC6CCC(C5)N6)nc(OC[C@H](C)CN5CCN(CC6CCC7(CC6)CCN(C(=O)c6cc(N8CCC(=O)NC8=O)c(C)cc6F)CC7)CC5)nc4c3F)c12 [Example 173, 1-(5-(9-((4-((R)-3-((4-(3,8-diazabicyclo[3.2.1]octan-3-yl)-7-(8-ethynyl-7-fluoro-3-hydroxynaphthalen-1-yl)-8-fluoropyrido[4,3-d]pyrimidin-2-yl)oxy)-2-methylpropyl)piperazin-1-yl)methyl)-3-azaspiro[5.5]undecane-3-carbonyl)-4-fluoro-2-methylphenyl)dihydropyrimidine-2,4(1H,3H)-dione] | 1.51 | 2.42 | 99 | 5.88 | 3.8 | 4.22
C#Cc1c(F)ccc2cc(O)cc(-c3ccc4c(N5CC6CCC(C5)N6)nc(OC[C@H](C)CN5CCN(CC6CCC7(CC6)CCN(C(=O)c6ccc(C)c(N8CCC(=O)NC8=O)c6)CC7)CC5)nc4c3F)c12 [Example 251, 1-(5-(9-((4-((R)-3-((4-(3,8-diazabicyclo[3.2.1]octan-3-yl)-7-(8-ethynyl-7-fluoro-3-hydroxynaphthalen-1-yl)-8-fluoroquinazolin-2-yl)oxy)-2-methylpropyl)piperazin-1-yl)methyl)-3-azaspiro[5.5]undecane-3-carbonyl)-2-methylphenyl)dihydropyrimidine-2,4(1H,3H)-dione] | 14.3 | 8.72 | 99.1 | 22.4 | 40.2 | –
C#Cc1c(F)ccc2cc(O)cc(-c3ncc4c(N5CC6CCC(C5)N6)nc(OC[C@@H](CN5CCN(CC6CCC7(CC6)CCN(C(=O)c6ccc(OC)c(N8CCC(=O)NC8=O)c6)CC7)CC5)C(C)C)nc4c3F)c12 [Example 252, 1-(5-(9-((4-((R)-2-(((4-(3,8-diazabicyclo[3.2.1]octan-3-yl)-7-(8-ethynyl-7-fluoro-3-hydroxynaphthalen-1-yl)-8-fluoropyrido[4,3-d]pyrimidin-2-yl)oxy)methyl)-3-methylbutyl)piperazin-1-yl)methyl)-3-azaspiro[5.5]undecane-3-carbonyl)-2-methoxyphenyl)dihydropyrimidine-2,4(1H,3H)-dione] | 21 | 42.3 | 100 | 51 | 18.9 | 31.7
